From article PMC5374420, “In Search of Small Molecule Inhibitors Targeting the Flexible CK2 Subunit Interface” (Pharmaceuticals, 2017)
One block for each molecule: values may come before it. Where a SMILES comes first, the peptide text is derived from it. Bridges are numbered along the chain shown (N, C = ends). The star is where a group is joined. Cbz = O=C(OCc1ccccc1)*; CH2F = FC*

Tests used:
[1] = target: T1, CK2 holoenzyme (CK2α + CK2β) (Homo sapiens, UniProt P68400); assay: CK2-mediated phosphorylation of GST-Olig2 and of CK2β (autoradiography); type: biochemical; conditions: 25 µM peptide
T1 construct: made in house
T1 sequence (P68400 whole entry): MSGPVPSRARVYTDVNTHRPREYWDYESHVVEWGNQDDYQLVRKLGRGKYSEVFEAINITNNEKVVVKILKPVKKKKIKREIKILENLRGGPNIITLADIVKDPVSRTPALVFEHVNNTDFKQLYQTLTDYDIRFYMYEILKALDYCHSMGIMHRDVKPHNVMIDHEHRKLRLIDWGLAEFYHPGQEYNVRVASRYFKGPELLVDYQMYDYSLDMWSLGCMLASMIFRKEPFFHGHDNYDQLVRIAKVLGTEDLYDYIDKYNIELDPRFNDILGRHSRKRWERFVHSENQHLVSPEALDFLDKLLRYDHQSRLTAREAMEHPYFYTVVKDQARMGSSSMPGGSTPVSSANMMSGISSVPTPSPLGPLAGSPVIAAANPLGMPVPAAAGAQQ
Protocol: Figure 2 CK2β-derived cyclic peptides inhibit CK2 activity in vitro. (A) a series of cyclized CK2β-derived peptide analogues varying in length from eight to 11 amino acids were tested for their effect on the phosphorylation of eIF2β-derived peptide substrate whose phosphorylation relies on the holoenzyme formation. Representative data shown from two independent experiments; (B) structure of Pc 11 (CC); (C) antagonist effect of Pc 11 (CC) on CK2-mediated phosphorylation of the CK2β-dependent substrate Olig2. CK2α was incubated alone or with CK2β in the absence or presence of 25 µM random Pc 11 (CC) or Pc 11 (CC) for 15 min at 4 °C, followed by the addition of GST (Gluthatione S-Transferase)-Olig2 (5 μg) and 25 μM [γ-^32P]ATP/MgCl2 for 5 min at room temperature. Phosphorylated proteins were separated by SDS/PAGE (Sodium dodecylsulfate/ Polyacrylamide gel electrophoresis) and analyzed by autoradiography. The gel was stained with coomassie blue to visualize GST-Olig2. TEXT PRINTED IN THE PICTURE: (A) no label printed: IC50 = 1-3 μM DOUBTS OF THE COPYIST ABOUT THIS PICTURE: Panel A: "IC50 = 1-3 μM" is printed once inside the plot, near the falling curves, and is not tied to any one peptide.

WT MCF-10A cells = assay: Cell death / viability, LIVE&DEAD assay, WT cells; type: cell-based; conditions: MCF-10A; 20 µM z-VAD or 30 µM Necrostatin-1 for 5 h, then 25 µM TAT-Pc 13 for 4 h
Protocol: (§1) Figure 8 Cellular effects of TAT-Pc 13. (A) MCF-10A cells were incubated with 25 µM of TAT-Pc 13 for 3 h and imaged with phase microscopy (upper panel) or with increasing concentrations of TAT-Pc 13 for 2 h and cell viability was evaluated using the LIVE&DEAD™ assay. Live cells fluoresce bright green (530 nm), whereas dead cells fluoresce red-orange (645 nm) (lower panel, scale bare: 100 µm); (B) WT (○-○) or CK2β-depleted (●-●) MCF-10A cells were incubated for 4 h with increasing concentrations of TAT-Pc 13 and cell death was evaluated using the LIVE&DEAD™ assay recording fluorescence at 645 nm. Representative data shown from two independent experiments in duplicate; (C) MCF-10A cells were pre-treated in the absence or presence of 20 µM z-VAD for 5 h and then incubated for 4 h with 25 µM random TAT-Pc 13 or TAT-Pc 13 and cell viability was evaluated as in (A) (scale bare: 100 µm); and (D) intracellular events induced by increasing concentrations of TAT-Pc 13. After 12 h of treatment, 786-O cells were lysed and analyzed by Western blot. TEXT PRINTED IN THE PICTURE: (B) TAT-Pc 13: TAT-Pc 13 (μM): 48; TAT-Pc 13 (μM): 60 DOUBTS OF THE COPYIST ABOUT THIS PICTURE: Panel B: 48 and 60 are printed in red at the x axis, where dashed lines drop from the two curves at about 50 on the Cell death (%) axis. No measure name (e.g. IC50) is printed with them.
Cells were seeded in 96-well microtiter plates at a concentration of 1 × 10^5 cells/mL and were allowed to attach for 24 h at 37 °C in 5% CO2. Cells were then exposed to different concentrations of TAT-Pc 13 for the indicated time. Cell viability was evaluated using the fluorescence-based LIVE&DEAD™ assay (Molecular Probes, Thermo Fisher Scientific, Courtaboeuf, France) according to the manufacturer. Images were taken with an Apotome-equipped Zeiss Axioimager microscope (Zeiss, Oberkochen, German) recording the fluorescence at 530 nm (Live cells) and 645 nm (dead cells) respectively using a FluoStar Optima plate reader (BMG LabTech, Ortenberg, Germany).

[2] = test system: p21 Thr145 phosphorylation, survivin expression, AKT activation; assay: Western blot of intracellular events (AKT, phospho-p21 Thr145, survivin); type: cell-based; conditions: 786-O cells, 12 h, increasing concentrations of CX-4945 (Figure S1)
Protocol: This was confirmed using the LIVE&DEAD^TM cell viability assay that provides a visual readout of cell integrity (Figure 8A lower panel). This cellular effect was also analyzed after treatment of WT or CK2β-depleted MCF-10A cells with increasing concentrations of TAT-Pc 13. TAT-Pc 13 caused a cell death in both cell types, which was already detectable at a concentration of 25 µM and became massive at 50–60 µM (Figure 8B). […] In order to investigate the intracellular events induced by TAT-Pc 13, MCF-10A cells were incubated with increasing concentrations of TAT-Pc 13 and analyzed by Western blot.
as §1, with “them. […]” for “them.”

CK2 holoenzyme = target: T2, CK2 holoenzyme (Homo sapiens, UniProt P68400); assay: CK2 kinase assay with CK2β-dependent eIF2β-derived peptide substrate; type: biochemical; conditions: result in words
T2 construct: made in house
T2 sequence (P68400 whole entry): as above
Text: In a previous study, we used the X-ray structure of CK2β in the holoenzyme complex as a template for the design of a conformationally constrained 13-mer peptide (Pc 13) derived from the CK2β C-terminal domain and centred around the Tyr188 and Phe190 hotspots. Pc 13 is an eight-residue peptide (Arg186–His193) that contains a cluster of hydrophobic residues (Leu187, Tyr188 and Ile192) and three additional glycine residues, cyclized via two cysteine residues to ‘staple’ its conformation and to mimic the binding face of CK2β with CK2α [15]. […]
Figure 2 CK2β-derived cyclic peptides inhibit CK2 activity in vitro. […] Phosphorylated proteins were separated by SDS/PAGE (Sodium dodecylsulfate/ Polyacrylamide gel electrophoresis) and analyzed by autoradiography. […]
Figure 4 Inhibitory activity of a TAT-Pc analogue in vitro. […] CK2 activity was then determined with CK2β-dependent or independent peptide substrates; (B) [^35S]-labeled CK2α was incubated with biotinylated MBP-CK2β immobilized on streptavidin coated plates (preformed complex) in the absence (1) or presence (2) of TAT-Pc 13. […] After washing, the amount of [^35S]-labeled CK2α remaining in the complex was determined by radioactivity counting. […]

- phosphorylation of CK2β in the holoenzyme [1]: significantly affected
- Olig-2 phosphorylation ([1]; 15 min at 4 °C, then GST-Olig2 and 25 μM ATP for 5 min at room temperature): strong decrease
SMILES: CC[C@H](C)[C@@H]1NC(=O)[C@H](CCCCN)NC(=O)[C@H](Cc2ccccc2)NC(=O)CNC(=O)[C@H](Cc2ccc(O)cc2)NC(=O)[C@H](CC(C)C)NC(=O)[C@H](CCCNC(=N)N)NC(=O)[C@@H](N)CSSC[C@@H](C(=O)O)NC(=O)CNC(=O)[C@H](Cc2c[nH]cn2)NC1=O [Pc 11 (CC)] (H-CRLYGFKIHGC-OH; disulfide 1-11)

SMILES: COC(=O)C[C@H](NC(=O)[C@H](C)NC(=O)[C@@H](NC(=O)OCc1ccccc1)C(C)C)C(=O)CF [z-VAD-FMK, reference compound] (Cbz-Val-Ala-Asp(OMe)-CH2F)
- effect of inhibitor pre-treatment on TAT-Pc 13-induced cell death (WT MCF-10A cells): insensitive

SMILES: CN1C(=O)C(Cc2c[nH]c3ccccc23)NC1=S (stereo not drawn) [Necrostatin-1, reference compound]
- effect of inhibitor pre-treatment on TAT-Pc 13-induced cell death (WT MCF-10A cells): prevented

SMILES: O=C(O)c1ccc2c(c1)nc(Nc1cccc(Cl)c1)c1ccncc12 [CX-4945, 5-(3-chlorophenylamino)benzo[c][2,6]naphthyridine-8-carboxylic acid, reference compound]
- phosphorylation of p21 [2]: strongly inhibited

- effect on phosphorylation of eIF2β peptide substrate (CK2 holoenzyme): inactive
SMILES: CC(C)C[C@@H]1NC(=O)[C@H](CCCNC(=N)N)NC(=O)[C@@H](N)CSSC[C@@H](C(=O)O)NC(=O)[C@H](CCCCN)NC(=O)[C@H](Cc2ccccc2)NC(=O)CNC(=O)[C@H](Cc2ccc(O)cc2)NC1=O [Pc 8 (CC)] (H-CRLYGFKC-OH; disulfide 1-8)
